The text below walks through data of patent publication US20230399332A1, “IMIDAZO[1,2-a]PYRAZINE OR PYRAZOLO[1,5-a]PYRIMIDINE DERIVATIVE AND USE THEREOF” (TENCENT TECHNOLOGY (SHENZHEN) COMPANY LIMITED, priority 2022, published 2023).

Where two headings read alike, the source gives them in different places.

One series concerns the target hERG (Homo sapiens (Human), UniProt Q12809). The series can be described thus: hERG inhibitory activity, whole cell patch clamp in CHO hERG cells. The series is classed as cell-based. As to conditions: for inhibition at 10 µM: human, CHO cells that express hERG, read-out: hERG inhibitory rate. How it is done: This experiment was carried out to test the in vitro inhibitory activity of the compounds of the present disclosure against hERG.
In this method, whole cell recording was conducted by using a HEKA EPC 10 USB patch clamp amplifier (HEKA Elektronik, Germany). A cover slide with a large number of individual CHO hERG cells on the surface was removed and placed in a recording tank which was treated with continuous perfusion (about 1 ml/min) and loaded into an inverted microscope. Currents of hERG channels of the individual cells were recorded by using a standard whole cell recording method. A fixed voltage of −80 mV was applied to the cells by a voltage clamp. The hERG currents were activated by depolarization at +20 mV for 5 s, and then the currents were changed back at −50 mV for 5 s to remove a passivation effect and observe deactivated tail currents. Potassium ion tail currents observed in the hERG channels were stabilized by continuous perfusion in this step. Then, the cells were treated with a drug of the present disclosure until a stable state was reached. A stable state was considered as being reached when three consecutive superimposed currents were recorded. At this time point, the cells were treated again with an extracellular solvent until the current amplitude was changed back to near the level before administration. Cisapride was used in a control experiment to verify that the mass and response of hERG cells were in a normal state.

Another series concerns the target LSD1 (Homo sapiens (Human), UniProt O60341). Nature of the series: LSD1 inhibitory activity on an enzyme level, AlphaScreen method. The series is classed as biochemical. As to conditions: in vitro. As for the experimental part:
This experiment was carried out to test the in vitro inhibitory activity of the compounds of the present disclosure against LSD1.
Experimental steps and a method: In this experiment, the in vitro inhibitory activity of the compounds of the present disclosure against LSD1 on an enzyme level was tested by using an AlphaScreen method. The experimental steps are described as follows: • a) preparation of a 1× buffer: • preparing a 1× buffer (improved trihydroxymethylaminomethane buffer); • b) continuous dilution of the compounds: • transferring the compounds of the present disclosure to a porous plate by using Echo at a final DMSO concentration of 1%; • c) preparation of an enzyme solution: • preparing an enzyme solution in the 1× buffer; • d) preparation of a substrate solution: • adding polypeptide to the 1× buffer to prepare a substrate solution; • e) transferring 5 μL of the enzyme solution or the 1× buffer to the porous plate; • f) conducting incubation at room temperature for 15 min; • g) adding 5 μL of the substrate solution to each well to induce a reaction; • h) conducting incubation at room temperature for 40 min; • i) preparing a 1× Alphalisa buffer; • j) preparation of a 1× Alphalisa buffer solution of receptors and donors: • adding 15 μL of a receptor and donor solution in dark light environment, and conducting incubation at room temperature for 60 min; • k) reading an endpoint in an EnSpire Alpha mode; and • l) data processing: • calculating an inhibitory value according to an equation 1:
Inh %=(Max−Signal)/(Max−Min)*100; and equation 1: • calculating an IC50 value by using XL-Fit according to an equation 2:
Y=Bottom+(Top-Bottom)/(1+(IC50/X)[…]), equation 2: • where Y indicates the inhibitory rate, and X indicates the concentration of a compound.

A short description of series [1]: Pharmacokinetics after intravenous injection or oral administration in mice. Format: in vivo. As to conditions: mouse, plasma, CD-1 mice, 5 mg/kg; for AUC(0-t): read-out: Curve area AUC0-t; for half-life: read-out: Half-life T1/2 (converted). As for the experimental part:
This experiment was carried out to test pharmacokinetic properties of the compounds of the present disclosure in mice.
A tested compound was dissolved in a mixture of 10% DMSO, 10% Solutol HS15 and 80% normal saline, and subjected to vortex treatment and ultrasonic treatment to obtain a corresponding concentration of a clarified solution. Then, the clarified solution was filtered with a microporous filter membrane for later use. A resulting tested compound solution was injected intravenously to CD-1 mice with a body weight of 21 to 27 g at a dose of 5 mg/kg. A tested compound was dissolved in a mixture of 10% DMSO, 10% Solutol HS15 and 80% normal saline, and subjected to vortex treatment and ultrasonic treatment to obtain a corresponding concentration of a clarified solution. Then, the clarified solution was filtered with a microporous filter membrane for later use. A resulting tested compound solution was administered orally to CD-1 mice with a body weight of 21 to 27 g at a dose of 5 mg/kg. Whole blood was collected at certain time points, and plasma was prepared. Drug concentration was analyzed by an LC-MS/MS method, and pharmacokinetic parameters were calculated by Phoenix WinNonlin software.

Chain of hERG (Q12809 whole entry, the tested form may be a part): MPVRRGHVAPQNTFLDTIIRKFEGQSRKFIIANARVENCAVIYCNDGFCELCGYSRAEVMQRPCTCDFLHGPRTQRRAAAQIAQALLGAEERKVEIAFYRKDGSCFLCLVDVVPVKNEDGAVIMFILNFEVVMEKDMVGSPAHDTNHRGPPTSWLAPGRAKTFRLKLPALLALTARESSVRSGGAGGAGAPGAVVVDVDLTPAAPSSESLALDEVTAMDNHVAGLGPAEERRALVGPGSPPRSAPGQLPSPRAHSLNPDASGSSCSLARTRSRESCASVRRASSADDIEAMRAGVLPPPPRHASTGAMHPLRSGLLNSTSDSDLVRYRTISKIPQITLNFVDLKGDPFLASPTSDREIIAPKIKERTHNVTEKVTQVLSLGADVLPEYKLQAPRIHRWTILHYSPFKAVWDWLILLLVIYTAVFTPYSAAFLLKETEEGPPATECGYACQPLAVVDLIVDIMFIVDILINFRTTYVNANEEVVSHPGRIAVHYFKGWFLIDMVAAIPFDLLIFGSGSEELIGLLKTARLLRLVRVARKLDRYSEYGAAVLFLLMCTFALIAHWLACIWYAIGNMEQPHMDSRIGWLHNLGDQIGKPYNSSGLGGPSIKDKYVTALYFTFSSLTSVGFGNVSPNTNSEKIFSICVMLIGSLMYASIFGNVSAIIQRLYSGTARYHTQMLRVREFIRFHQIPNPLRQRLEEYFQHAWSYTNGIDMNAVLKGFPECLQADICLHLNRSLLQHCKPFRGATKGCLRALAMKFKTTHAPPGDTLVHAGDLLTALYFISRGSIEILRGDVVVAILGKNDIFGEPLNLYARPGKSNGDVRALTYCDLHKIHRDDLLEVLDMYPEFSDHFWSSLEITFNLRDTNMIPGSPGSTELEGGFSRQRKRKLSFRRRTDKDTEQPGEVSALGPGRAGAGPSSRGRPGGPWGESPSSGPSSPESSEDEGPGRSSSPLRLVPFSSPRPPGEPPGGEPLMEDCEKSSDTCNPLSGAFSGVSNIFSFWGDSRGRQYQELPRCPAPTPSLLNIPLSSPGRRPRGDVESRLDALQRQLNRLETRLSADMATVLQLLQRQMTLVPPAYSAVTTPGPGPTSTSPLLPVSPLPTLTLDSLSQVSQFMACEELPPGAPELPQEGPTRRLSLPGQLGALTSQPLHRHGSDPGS

`CC(C)(O)Cn1nnc2cc(-c3c(-c4ccc(C#N)c(F)c4)nc4c(N5CCC[C@@H](N)C5)nccn34)c(F)cc21` [Compound 12, (R)-4-(8-(3-aminopiperidin-1-yl)-3-(6-fluoro-1-(2-hydroxy-2-methylpropyl)-1H-benzo[d][1,2,3]triazol-5-yl)imidazo[1,2-a]pyrazin-2-yl)-2-fluorobenzonitrile]: the inhibition at 10 µM at hERG came out at 27%. For the same compound, on LSD1, the IC50 worked out at 1.6 nM.
As to `CC(C)(O)Cn1nnc2cc(-c3c(-c4ccc(C#N)c(F)c4)nc4c(N5CCC[C@@H](N)C5)nccn34)c(F)cc21` [Compound 18, (R)-4-(8-(3-aminopiperidin-1-yl)-3-(6-fluoro-1-(2-hydroxy-2-methylpropyl)-1H-benzo[d][1,2,3]triazol-5-yl)imidazo[1,2-a]pyrazin-2-yl)-2-fluorobenzonitrile], the hERG inhibitory rate at hERG (10 μM) amounted to 43.72%.
Consider `CC(C)(O)Cn1nnc2cc(-c3c(-c4ccc(C#N)c(F)c4)nc4c(N5CCC[C@@H](N)C5)nccn34)ccc21` [Compound 20, (R)-4-(8-(3-aminopiperidin-1-yl)-3-(1-(2-hydroxy-2-methylpropyl)-1H-benzo[d][1,2,3]triazol-5-yl)imidazo[1,2-a]pyrazin-2-yl)-2-fluorobenzonitrile], for which the inhibition at 10 µM at hERG is 26.7%. The compound further came in with an IC50 at LSD1 of 2.6 nM.
As for `CC(C)(O)Cn1nnc2cc(-c3c(-c4ccc(C#N)c(F)c4)nc4c(N5[C@@H]6CC[C@H]5[C@@H](N)C6)nccn34)c(F)cc21` [Compound 27, 4-(8-((1S,2S,4R)-2-amino-7-azabicyclo[2.2.1]heptane-7-yl)-3-(6-fluoro-1-(2-hydroxy-2-methylpropyl)-1H-benzo[d][1,2,3]triazol-5-yl)imidazo[1,2-a]pyrazin-2-yl)-2-fluorobenzonitrile], the Vd in series [1] (intravenous injection, read-out: Apparent volume of distribution V) was 5.04 L/kg. In series [1] (intravenous injection, read-out: Clearance rate CL), the clearance came to 7.25 mL/min/kg. In addition, in series [1] (intravenous injection), the AUC(0-t) is 11500 ng·h/mL and the half-life is 8.33 h. The Cmax in series [1] (oral administration, read-out: Blood drug concentration Cmax) came to 648 ng/mL. Moreover, in series [1] (oral administration), the AUC(0-t) came out at 6530 ng·h/mL and the half-life was 5.86 h. Also, at LSD1, the IC50 worked out at 1 nM.
`Cn1nnc2cc(-c3c(-c4ccc(C#N)c(F)c4)nc4c(N5CCC[C@@H](N)C5)nccn34)c(F)cc21` [Compound 30, (R)-4-(8-(3-aminopiperidin-1-yl)-3-(6-fluoro-1-methyl-1H-benzo[d][1,2,3]triazol-5-yl)imidazo[1,2-a]pyrazin-2-yl)-2-fluorobenzonitrile] displayed an IC50 against LSD1 of 1 nM.
Still for that read-out and setting: then “(R)4-(7-(3-aminopiperidin-1-yl)-3-(3-fluoro-4-methoxyphenyl)imidazo [1,5-a]pyrazin-2-yl)-2-fluorobenzonitrile [Compound 4]”, with 1 nM.
